Data on 31 molecules can be found in patent US10370343B2, “[6,6] Fused bicyclic HDAC8 inhibitors” (FORMA Therapeutics, Inc., priority 2015, dated 2019).

In assay [1] the target is T1, Recombinant N-terminal GST tag full-length human HDAC8 (Homo sapiens, UniProt Q9BY41).
T1 construct: Recombinant N-terminal GST tag full-length human HDAC8; purchased SignalChem H90-30G-1000; host or cells: baculovirus in Sf9 insect cells
T1 sequence (Q9BY41 1-377): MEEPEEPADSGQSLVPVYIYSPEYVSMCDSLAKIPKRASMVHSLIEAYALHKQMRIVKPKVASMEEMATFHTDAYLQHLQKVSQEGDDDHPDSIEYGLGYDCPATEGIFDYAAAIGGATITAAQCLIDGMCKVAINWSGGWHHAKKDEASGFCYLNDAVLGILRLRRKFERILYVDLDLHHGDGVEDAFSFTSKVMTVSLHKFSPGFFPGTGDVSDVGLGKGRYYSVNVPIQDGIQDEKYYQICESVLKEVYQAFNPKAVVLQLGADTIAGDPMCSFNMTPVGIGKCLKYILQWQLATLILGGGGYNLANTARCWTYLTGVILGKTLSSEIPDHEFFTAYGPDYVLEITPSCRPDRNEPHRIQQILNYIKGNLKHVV
The experiment in a line: HDAC8 probe binding assay, time resolved fluorescence (TRF) format. The conditions noted are these: compounds grouped by IC50 range (Table 2). The procedure, abridged: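 Probe-binding TRF assay using full-length N-GST human HDAC8 expressed in baculovirus-infected Sf9 cells, incubated 16 h at room temperature and read at 340 nm excitation, 485/535 nm emission. Percent inhibition was normalised to no-enzyme and DMSO controls. IC50 was obtained by 4-parameter logistic fit.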

Assay [2] has as its target T2, Full length human recombinant HDAC8 protein (Homo sapiens, UniProt Q9BY41).
T2 construct: Full length human recombinant HDAC8 protein was expressed in baculoviral system; made in house
T2 sequence (Q9BY41 1-377): T1 sequence (Q9BY41 1-377)
The experiment in a line: In vitro histone deacetylase assay: enzymatic HDAC8 electrophoretic mobility shift assay. Particulars: electrophoretic mobility shift assay; enzyme 1 nM; 2 μM fluorescently labeled peptide substrate RHKK(Ac)-NH2; 25° C.; 12 concentrations; read-out: HDAC8 IC50. It counts as biochemical. (In EMSA bound probe runs differently from free probe, usually more slowly.)

In the case of `CN1CCCC[C@H]1CN1C(=O)COc2ccc(C(=O)NO)cc21` (stereo in doubt) [Compound I-47, N-hydroxy-4-((1-methylpiperidin-2-yl)methyl)-3-oxo-3,4-dihydro-2H-benzo[b][1,4]oxazine-6-carboxamide], the IC50 in assay [1] and in assay [2] was above 1000 nM in each case.
As for `O=C(NO)c1ccc2c(c1)N(CC[C@@H]1CCS(=O)(=O)C1)C(=O)CO2` (stereo in doubt) [Compound I-54, 4-(2-(1,1-dioxidotetrahydrothiophen-3-yl)ethyl)-N-hydroxy-3-oxo-3,4-dihydro-2H-benzo[b][1,4]oxazine-6-carboxamide], the results for the IC50 in assay [1] and in assay [2] were 25 to 100 nM and 100 to 1000 nM, respectively.
On to `O=C(NO)c1ccc2c(c1)N(Cc1csc(C3CC3)n1)CCO2` [Compound I-20, 4-((2-cyclopropylthiazol-4-yl)methyl)-N-hydroxy-3,4-dihydro-2H-benzo[b][1,4]oxazine-6-carboxamide], for which the 50% inhibitory concentration (IC50) (in general, the concentration needed to halve the response being measured) in assay [1] was above 1000 nM; in assay [2] it was 100 to 1000 nM.
The matching figures for `O=C(NO)c1ccc2c(c1)N(Cc1ccccc1F)CCO2` [Compound I-27, 4-(2-fluorobenzyl)-N-hydroxy-3,4-dihydro-2H-benzo[b][1,4]oxazine-6-carboxamide]: 25 to 100 nM and below 25 nM.
For `O=C(NO)c1ccc2c(c1)N(CC1CCC1)C(=O)CO2` [Compound I-31, 4-(cyclobutylmethyl)-N-hydroxy-3-oxo-3,4-dihydro-2H-benzo[b][1,4]oxazine-6-carboxamide] the same measures were 25 to 100 nM and 25 to 100 nM.
Regarding `O=C(NO)c1ccc2c(c1)N(Cc1cccc(F)c1)C(=O)CO2` [Compound I-33, 4-(3-fluorobenzyl)-N-hydroxy-3-oxo-3,4-dihydro-2H-benzo[b][1,4]oxazine-6-carboxamide], the IC50 in assay [1] is at most 25 nM; in assay [2], 25 to 100 nM.
As to `O=C(NO)c1ccc2c(c1)N(Cc1ccc(OC(F)(F)F)cc1)C(=O)CO2` [Compound I-36, N-hydroxy-3-oxo-4-(4-(trifluoromethoxy)benzyl)-3,4-dihydro-2H-benzo[b][1,4]oxazine-6-carboxamide], the IC50 in assay [1] was at most 25 nM; in assay [2] it was below 25 nM.
As to `O=C(NO)c1ccc2c(c1)N(Cc1ccc(F)cc1)C(=O)CO2` [Compound I-37, 4-(4-fluorobenzyl)-N-hydroxy-3-oxo-3,4-dihydro-2H-benzo[b][1,4]oxazine-6-carboxamide], the IC50 in assay [1] was at most 25 nM; in assay [2] it was below 25 nM.
The matching figures for `Cc1ccc(CN2C(=O)COc3ccc(C(=O)NO)cc32)cc1` [Compound I-38, N-hydroxy-4-(4-methylbenzyl)-3-oxo-3,4-dihydro-2H-benzo[b][1,4]oxazine-6-carboxamide]: at most 25 nM and below 25 nM.
Take `CS(=O)(=O)c1ccc(CN2CCOc3ccc(C(=O)NO)cc32)c(Cl)c1` [Compound I-134, 4-(2-chloro-4-(methylsulfonyl)benzyl)-N-hydroxy-3,4-dihydro-2H-benzo[b][1,4]oxazine-6-carboxamide]: in assay [2], the IC50 was below 25 nM.
The same measure, in the same setting: the result for `CC(c1ccccc1Cl)N1CCOc2ccc(C(=O)NO)cc21` (stereo not shown) [Compound I-136, 4-(1-(2-chlorophenyl)ethyl)-N-hydroxy-3,4-dihydro-2H-benzo[b][1,4]oxazine-6-carboxamide] reads 100 to 1000 nM; that for `CS(=O)(=O)c1ccc(CN2CCOc3ccc(C(=O)NO)cc32)c(C(F)(F)F)c1` [Compound I-137, N-hydroxy-4-(4-(methylsulfonyl)-2-(trifluoromethyl)benzyl)-3,4-dihydro-2H-benzo[b][1,4]oxazine-6-carboxamide], 25 to 100 nM.
Turning to `COc1cc(CN2CCOc3ccc(C(=O)NO)cc32)ccc1S(C)(=O)=O` [Compound I-138, N-hydroxy-4-(3-methoxy-4-(methylsulfonyl)benzyl)-3,4-dihydro-2H-benzo[b][1,4]oxazine-6-carboxamide], the IC50 in assay [2] is 100 to 1000 nM.
With `COc1ccc(CN2CCOc3ccc(C(=O)NO)cc32)cc1S(C)(=O)=O` [Compound I-139, N-hydroxy-4-(4-methoxy-3-(methylsulfonyl)benzyl)-3,4-dihydro-2H-benzo[b][1,4]oxazine-6-carboxamide], the IC50 in assay [2] fell in the range of 25 to 100 nM.
In the case of `O=C(NO)c1ccc2c(c1)N(C(=O)c1ccccc1)CCO2` [Compound I-140, 4-benzoyl-N-hydroxy-3,4-dihydro-2H-benzo[b][1,4]oxazine-6-carboxamide], the IC50 in assay [2] was above 1000 nM.
The same measure, in the same setting: the result for `O=C(NO)c1ccc2c(c1)N(Cc1cccc(C(F)(F)F)c1)C(=O)CO2` [Compound I-144, N-hydroxy-3-oxo-4-(3-(trifluoromethyl)benzyl)-3,4-dihydro-2H-benzo[b][1,4]oxazine-6-carboxamide] reads below 25 nM.
The same measure, in the same setting: the figure for `O=C(NO)c1ccc2c(c1)N(Cc1cccc(OC(F)(F)F)c1)C(=O)CO2` [Compound I-146, N-hydroxy-3-oxo-4-(3-(trifluoromethoxy)benzyl)-3,4-dihydro-2H-benzo[b][1,4]oxazine-6-carboxamide] is below 25 nM; for `Cc1ccccc1CN1C(=O)COc2ccc(C(=O)NO)cc21` [Compound I-148, N-hydroxy-4-(2-methylbenzyl)-3-oxo-3,4-dihydro-2H-benzo[b][1,4]oxazine-6-carboxamide] it is 100 to 1000 nM.
On the same count and under the same terms, the figure for `CC1Oc2ccc(C(=O)NO)cc2N(Cc2ccccc2)C1=O` (stereo not shown) [Compound I-153, 4-benzyl-N-hydroxy-2-methyl-3-oxo-3,4-dihydro-2H-benzo[b][1,4]oxazine-6-carboxamide] is 25 to 100 nM; for `COc1ccc(CN2c3cc(C(=O)NO)ccc3OCC2C)cc1` (stereo not shown) [Compound I-155, N-hydroxy-4-(4-methoxybenzyl)-3-methyl-3,4-dihydro-2H-benzo[b][1,4]oxazine-6-carboxamide] it is 25 to 100 nM.
Turning to `O=C(NO)c1ccc2c(c1)N(C(=O)N1CC3(CCOCC3)c3ccccc31)CCO2` [Compound I-156, N-hydroxy-4-(2′,3′,5′,6′-tetrahydrospiro[indoline-3,4′-pyran]-1-carbonyl)-3,4-dihydro-2H-benzo[b][1,4]oxazine-6-carboxamide], the IC50 in assay [2] was above 1000 nM.
Still for that read-out and setting: the result for `COc1ccc(CN2C(=O)C3(CCCCC3)Oc3ccc(C(=O)NO)cc32)cc1` [Compound I-158, N-hydroxy-4-(4-methoxybenzyl)-3-oxo-3,4-dihydrospiro[benzo[b][1,4]oxazine-2,1′-cyclohexane]-6-carboxamide] reads 100 to 1000 nM; that for `COc1ccc(CN2C(=O)C(C)(C)Oc3ccc(C(=O)NO)cc32)c(Cl)c1` [Compound I-159, 4-(2-chloro-4-methoxybenzyl)-N-hydroxy-2,2-dimethyl-3-oxo-3,4-dihydro-2H-benzo[b][1,4]oxazine-6-carboxamide], 25 to 100 nM.
On the same count and under the same terms, the result for `Cc1ccc(CN2C(=O)COc3ccc(C(=O)NO)cc32)cc1C` [Compound I-219, 4-(3,4-dimethylbenzyl)-N-hydroxy-3-oxo-3,4-dihydro-2H-benzo[b][1,4]oxazine-6-carboxamide] reads below 25 nM; that for `O=C(NO)c1ccc2c(c1)N(Cc1ccccc1-c1ccccc1)C(=O)CO2` [Compound I-257, 4-([1,1′-biphenyl]-2-ylmethyl)-N-hydroxy-3-oxo-3,4-dihydro-2H-benzo[b][1,4]oxazine-6-carboxamide], 100 to 1000 nM.
Turning to `O=C(NO)c1ccc2c(c1)N(Cc1nc3ccc(Cl)cc3n1CC1CC1)C(=O)CO2` [Compound I-260, 4-((6-chloro-1-(cyclopropylmethyl)-1H-benzo[d]imidazol-2-yl)methyl)-N-hydroxy-3-oxo-3,4-dihydro-2H-benzo[b][1,4]oxazine-6-carboxamide], in assay [2], the IC50 lay in the range of 100 to 1000 nM.
Same read-out and setting: the result for `O=C(NO)c1ccc2c(c1)N(Cc1ccccc1SC(F)(F)F)C(=O)CO2` [Compound I-262, N-hydroxy-3-oxo-4-(2-((trifluoromethyl)thio)benzyl)-3,4-dihydro-2H-benzo[b][1,4]oxazine-6-carboxamide] reads 25 to 100 nM.
Still for that read-out and setting: the result for `CCn1c(CN2C(=O)COc3ccc(C(=O)NO)cc32)nc2ccc(Cl)cc21` [Compound I-269, 4-((6-chloro-1-ethyl-1H-benzo[d]imidazol-2-yl)methyl)-N-hydroxy-3-oxo-3,4-dihydro-2H-benzo[b][1,4]oxazine-6-carboxamide] reads 100 to 1000 nM; that for `O=C(NO)c1ccc2c(c1)N(Cc1nc3ccccc3n1CC1CC1)C(=O)CO2` [Compound I-279, 4-((1-(cyclopropylmethyl)-1H-benzo[d]imidazol-2-yl)methyl)-N-hydroxy-3-oxo-3,4-dihydro-2H-benzo[b][1,4]oxazine-6-carboxamide], 100 to 1000 nM.
On the same count and under the same terms, the result for `CCCn1c(CN2C(=O)COc3ccc(C(=O)NO)cc32)nc2ccccc21` [Compound I-282, N-hydroxy-3-oxo-4-((1-propyl-1H-benzo[d]imidazol-2-yl)methyl)-3,4-dihydro-2H-benzo[b][1,4]oxazine-6-carboxamide] reads 100 to 1000 nM.
`CCCc1nc(C)sc1CN1C(=O)COc2ccc(C(=O)NO)cc21` [Compound I-283, N-hydroxy-4-((2-methyl-4-propylthiazol-5-yl)methyl)-3-oxo-3,4-dihydro-2H-benzo[b][1,4]oxazine-6-carboxamide]: in assay [2], the IC50 was in the range of 100 to 1000 nM.
